SMILES strings stand for the structures.

The results in this text go back to patent US6903114B2, “Derivatives of naphthalene with COMT inhibiting activity” (Orion Corporation, priority 2000, dated 2005).

The target of this assay is T1, S-COMT enzyme (Homo sapiens, UniProt P21964).
T1 sequence (P21964 1-221 isoform P21964-2): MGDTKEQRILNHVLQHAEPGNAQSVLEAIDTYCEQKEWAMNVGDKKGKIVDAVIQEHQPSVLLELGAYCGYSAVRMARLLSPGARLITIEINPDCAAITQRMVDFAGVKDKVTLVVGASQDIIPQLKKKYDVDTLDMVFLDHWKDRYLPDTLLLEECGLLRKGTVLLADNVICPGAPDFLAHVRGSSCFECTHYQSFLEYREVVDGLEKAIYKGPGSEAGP
Nature of the assay: Determination of COMT activity (IC50). To be noted: S-COMT about 30 nM, 3 mM dopamine substrate, 0.05 mM AdoMet, 5 mM MgCl2, pH 7.4, 37° C., 15 min; HPLC. Format: biochemical. As to the method:
EXPERIMENT I: Determination of COMT activity (IC50)
The determination of IC50 was performed by measuring the COMT activity in a test sample which contained S-COMT enzyme (about 30 nM), 3 mM dopamine (as the substrate of COMT), 5 mM magnesium chloride, 0.05 mM S-adenosyl-L-methionine (AdoMet) and a test compound of the invention at various concentrations in 0.1 M phosphate buffer, pH 7.4, at 37° C.
The reaction in the test sample was initiated by adding the dopamine substrate to the sample mixture and, after incubation for 15 min at 37° C., the reaction was stopped with 4 M perchloric acid and stabilized further 10 min in ice bath. Thereafter the precipitated proteins were removed by centrifugation (4000×G for 10 min). The activity of COMT enzyme was measured by determining the concentration of the reaction products, 3-methyldopamine and 4-methyldopamine, by HPLC. The results were calibrated with 3-methyldopamine standards. See also T. Lotta et al., Biochemistry, vol.34(13), 1995, p.4204. The IC50 value is the concentration of the test compound which causes a 50% decrease in COMT activity.

In the case of `O=[N+]([O-])c1c(O)c(O)c(Br)c2ccncc12` [Example 15, 5-Bromo-6,7-dihydroxy-8-nitro-isoquinolinium; Bromide], the midpoint of inhibition, the IC50, lay at 140 nM.

`O=[N+]([O-])c1c(O)c(O)cc2ccccc12` [Example 1, 1-Nitronaphthalene-2,3-diol]: the IC50 (usually the concentration needed to halve the response being measured) was 30 nM.

Take `O=C(c1ccccc1)c1ccc2c([N+](=O)[O-])c(O)c(O)cc2c1` [Example 3, (6,7-Dihydroxy-5-nitro-naphthalen-2-yl)-phenyl-methanone]: the IC50 amounted to 80 nM.

As to `CCCN(CCC)S(=O)(=O)c1ccc2c([N+](=O)[O-])c(O)c(O)cc2c1` [Example 11, 6,7-Dihydroxy-5-nitro-naphthalene-2-sulfonic Acid Dipropylamide], it took 25 nM to reach half-maximal inhibition (IC50).

For the compound `O=[N+]([O-])c1ccc2c([N+](=O)[O-])c(O)c(O)cc2c1` [Example 10, 1,6-Dinitro-naphthalene-2,3-diol], half-maximal inhibition (IC50) was put at 15 nM.

`N#Cc1c(O)c(O)cc2ccccc12` [Example 13, 2,3-Dihydroxy-naphthalene-1-carbonitrile] had an IC50 of 100 nM.

`CC(C)Cc1ccc2c([N+](=O)[O-])c(O)c(O)cc2c1` [Example 5, 6-Isobutyl-1-nitro-naphthalene-2,3-diol] yielded a 50% inhibitory concentration (IC50) of 45 nM.

Take `O=Cc1c(O)c(O)cc2ccccc12` [Example 8, 2,3-Dihydroxy-naphthalene-1-carbaldehyde]: the IC50 came to 200 nM.

Regarding `CCCCCCC(=O)c1ccc2c([N+](=O)[O-])c(O)c(O)cc2c1` [Example 9, 1-(6,7-Dihydroxy-5-nitro-naphthalen-2-yl)-heptan-1-one], the half-maximal inhibitory concentration (IC50) was 80 nM.

As for `CC(C)C(=O)c1ccc2c([N+](=O)[O-])c(O)c(O)cc2c1` [Example 4, 1-(6,7-Dihydroxy-5-nitro-naphthalen-2-yl)-2-methyl-propan-1-one], the IC50 was determined as 25 nM.

In turn, `O=C(O)c1ccc2c([N+](=O)[O-])c(O)c(O)cc2c1` [Example 7, 6,7-Dihydroxy-5-nitro-naphthalene-2-carboxylic Acid] came in with a concentration for half-maximal inhibition (IC50) of 30 nM.

With `CN1CCN(C(=O)c2ccc3c([N+](=O)[O-])c(O)c(O)cc3c2)CC1` [Example 14, (6,7-Dihydroxy-5-nitro-naphthalen-2-yl)-(4-methyl-piperazin-1-yl)-methanone], the IC50 was 15 nM.
